Earlier results, collected in patent publication US12551462B2, “Anti-aging composition with rutin, apigenin, epigallocatechin gallate, lipoic acid and the NAD precursor, niacinamide” (NUCHIDO LIMITED, priority 2018, dated 2026).

System: NAD concentration
Settings: Trammell et al. 2016

NC(=O)c1ccc[n+]([C@@H]2O[C@H](CO)[C@@H](O)[C@H]2O)c1 [Niagen, nicotinamide riboside]
Enhancement of NAD (as % baseline): 270%
